The text below walks through data of US12344595B2, “2-amino-n-phenyl-nicotinamides as NAV1.8 inhibitors” (Merck Sharp & Dohme LLC, priority 2018, dated 2025).

One may read the IC50 as the concentration needed to halve the response being measured. A low value points to greater potency.

human Nav1.8, sequence (Q9Y5Y9 whole entry): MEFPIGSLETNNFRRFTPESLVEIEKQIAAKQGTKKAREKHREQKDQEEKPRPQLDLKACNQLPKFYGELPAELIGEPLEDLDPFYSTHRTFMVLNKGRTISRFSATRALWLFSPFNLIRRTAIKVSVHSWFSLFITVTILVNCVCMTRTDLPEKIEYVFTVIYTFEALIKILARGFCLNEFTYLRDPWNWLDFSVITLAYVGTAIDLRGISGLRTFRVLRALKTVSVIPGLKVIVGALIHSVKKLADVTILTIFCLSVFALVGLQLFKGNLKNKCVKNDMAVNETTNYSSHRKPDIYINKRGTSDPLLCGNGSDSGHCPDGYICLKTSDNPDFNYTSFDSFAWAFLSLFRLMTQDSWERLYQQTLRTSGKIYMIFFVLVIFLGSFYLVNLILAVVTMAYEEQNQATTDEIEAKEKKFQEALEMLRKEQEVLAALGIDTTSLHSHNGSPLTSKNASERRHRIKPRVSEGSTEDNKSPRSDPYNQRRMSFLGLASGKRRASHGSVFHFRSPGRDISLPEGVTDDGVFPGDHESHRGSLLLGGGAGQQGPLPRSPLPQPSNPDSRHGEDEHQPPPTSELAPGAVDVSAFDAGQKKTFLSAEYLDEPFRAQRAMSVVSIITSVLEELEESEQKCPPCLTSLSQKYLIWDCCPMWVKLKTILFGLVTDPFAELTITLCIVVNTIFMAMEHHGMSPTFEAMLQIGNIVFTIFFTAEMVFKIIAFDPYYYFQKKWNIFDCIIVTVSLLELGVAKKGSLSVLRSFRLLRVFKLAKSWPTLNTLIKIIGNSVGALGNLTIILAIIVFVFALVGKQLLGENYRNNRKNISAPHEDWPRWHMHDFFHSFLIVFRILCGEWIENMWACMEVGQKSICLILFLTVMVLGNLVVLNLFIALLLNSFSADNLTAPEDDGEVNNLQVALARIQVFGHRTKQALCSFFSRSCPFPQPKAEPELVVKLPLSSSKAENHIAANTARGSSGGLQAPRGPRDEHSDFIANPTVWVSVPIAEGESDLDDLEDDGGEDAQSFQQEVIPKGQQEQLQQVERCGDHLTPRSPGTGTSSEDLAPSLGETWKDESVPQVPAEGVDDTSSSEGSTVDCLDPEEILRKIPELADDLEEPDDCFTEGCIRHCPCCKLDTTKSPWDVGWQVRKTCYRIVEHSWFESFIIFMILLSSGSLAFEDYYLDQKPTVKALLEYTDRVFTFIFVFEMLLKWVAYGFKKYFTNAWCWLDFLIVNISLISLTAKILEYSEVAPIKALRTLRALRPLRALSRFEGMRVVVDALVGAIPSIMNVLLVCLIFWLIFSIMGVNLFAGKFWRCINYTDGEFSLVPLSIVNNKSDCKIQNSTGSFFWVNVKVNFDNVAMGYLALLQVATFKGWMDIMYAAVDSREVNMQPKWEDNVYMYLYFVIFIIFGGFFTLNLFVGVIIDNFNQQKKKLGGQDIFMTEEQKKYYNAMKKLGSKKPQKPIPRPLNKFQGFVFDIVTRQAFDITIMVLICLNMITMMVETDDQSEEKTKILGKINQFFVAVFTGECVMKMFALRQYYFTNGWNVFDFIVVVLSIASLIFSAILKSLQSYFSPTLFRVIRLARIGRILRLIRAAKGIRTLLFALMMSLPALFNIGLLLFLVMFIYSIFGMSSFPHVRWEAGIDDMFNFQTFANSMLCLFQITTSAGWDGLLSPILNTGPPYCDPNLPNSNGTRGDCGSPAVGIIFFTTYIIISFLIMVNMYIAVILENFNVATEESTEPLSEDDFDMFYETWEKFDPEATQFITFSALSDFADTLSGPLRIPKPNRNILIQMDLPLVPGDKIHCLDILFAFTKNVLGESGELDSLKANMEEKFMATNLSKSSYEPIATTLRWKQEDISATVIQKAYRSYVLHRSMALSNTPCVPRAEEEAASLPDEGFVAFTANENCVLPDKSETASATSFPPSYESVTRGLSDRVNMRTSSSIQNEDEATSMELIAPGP

The test addresses human Nav1.8 (Homo sapiens (Human), UniProt Q9Y5Y9). Briefly: Nav1.8 Qube automated patch-clamp assay. As to conditions: Nav1.8 Qube Assay; human Nav1.8 channels stably expressed in HEK 293 cells. The format is cell-based. An outline of the steps: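 Whole-cell automated patch clamp was run at room temperature on HEK293 cells stably expressing the channel. A 1 Hz, 10 s train of 20 ms pulses to 10 mV from −90 mV (repolarizing to −67 mV) was applied. Peak currents at the 1st and 10th pulses gave resting and inactivated-state IC50 values by Hill fit.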
Turning to `NC(=O)c1cccc(NC(=O)c2cc(C(F)(F)F)cnc2N2CCCC(F)(F)C2)c1` [Example 110, N-(3-carbamoylphenyl)-2-(3,3-difluoro-1-piperidyl)-5-(tri-fluoromethyl)pyridine-3-carboxamide], the IC50 came out at 3770 nM. Regarding `CC1CN(c2ncc(C(F)(F)F)cc2C(=O)Nc2cccc(S(N)(=O)=O)c2)CCC1(F)F` (single isomer, unassigned) [Example 124, (S or R)-2-(4,4-difluoro-3-methylpiperidin-1-yl)-N-(3-sulfamoylphenyl)-5-(trifluoromethyl)nicotinamide], 15 nM corresponded to half-maximal inhibition (IC50). Compared with the last molecule, the IC50 is about 250-fold lower. The figure for `C[Si](C)(C)c1cnc(N2CCCCCC2)c(C(=O)Nc2cccc(S(N)(=O)=O)c2)c1` [Example 86, 2-(azepan-1-yl)-N-(3-sulfamoylphenyl)-5-(trimethylsilyl)nicotinamide] is 77 nM; for `NS(=O)(=O)c1cccc(NC(=O)c2cc(C(F)(F)F)cnc2N2CCc3scnc3C2)c1` [Example 55, 2-(6,7-dihydro-4H-thiazol[4,5-c]pyridin-5-yl)-N-(3-sulfamoyl-phenyl)-5-(trifluoro-methyl)pyridine-3-carboxamide] it is 405 nM; for `COC(=O)C1CCCN(c2ncc(C(F)(F)F)cc2C(=O)Nc2cccc(S(N)(=O)=O)c2)CC1` (stereo not shown) [Example 48, methyl 1-[3-[(3-sulfamoylphenyl)-carbamoyl]-5-(tri-fluoromethyl)-2-pyridyl]azepane-4-carboxylate] it is 161 nM. For `Cc1nc(N2CCCC(F)(F)CC2)c(C(=O)Nc2cccc(C(N)=O)c2)cc1C#N` [Example 177, N-(3-carbamoylphenyl)-5-cyano-2-(4,4-difluoroazepan-1-yl)-6-methyl-pyridine-3-carboxamide] the value was 28 nM. As to `CS(=O)(=O)c1cccc(NC(=O)c2cc(C(F)(F)C(F)(F)F)cnc2N2CCCCCC2)c1` [Example 166, 2-(azepan-1-yl)-N-(3-methylsulfonylphenyl)-5-(1,1,2,2,2-penta-fluoroethyl)pyridine-3-carboxamide], 30 nM corresponded to half-maximal inhibition (IC50). The figure for `NS(=O)(=O)c1cccc(NC(=O)c2ccc(Cl)nc2N2CCCCCC2)c1` [Example 89, 2-(azepan-1-yl)-6-chloro-N-(3-sulfamoyl-phenyl)pyridine-3-carboxamide] is 16 nM. The figure for `CC1CN(c2ncc(C(F)(F)F)cc2C(=O)Nc2cccc(S(N)(=O)=O)c2)CCC1(F)F` (single isomer, unassigned) [Example 123, (R or S)-2-(4,4-Difluoro-3-methylpiperidin-1-yl)-N-(3-sulfamoylphenyl)-5-(trifluoromethyl)nicotinamide] is 3 nM; for `NS(=O)(=O)c1cccc(NC(=O)c2cc(C3CCC3)cnc2N2CCCC(F)(F)CC2)c1` [Example 159, 5-cyclobutyl-2-(4,4-difluoroazepan-1-yl)-N-(3-sulfamoylphenyl)nicotinamide] it is 2.5 nM; for `CC(C)S(=O)(=O)c1cccc(NC(=O)c2cc(C(F)(F)F)cnc2N2CCCCCC2)c1` [Example 117, 2-(azepan-1-yl)-N-(3-isopropylsulfonylphenyl)-5-(trifluoromethyl)-pyridine-3-carboxamide] it is 778 nM. The figure for `NS(=O)(=O)c1cccc(NC(=O)c2cc(C(F)(F)F)cnc2N2CCOCC2)c1` [Example 69, 2-morpholino-N-(3-sulfamoylphenyl)-5-(trifluoromethyl) pyridine-3-carboxamide] is 4060 nM; for `NC(=O)c1cccc(NC(=O)c2ccc(C(F)(F)F)nc2N2CCC3(CC2)CC3)c1` [Example 83, N-(3-carbamoyl-phenyl)-2-(6-azaspiro[2.5]octan-6-yl)-6-(trifluoro-methyl)-nicotinamide] it is 180 nM.

Turning to `CS(=O)(=O)c1cccc(NC(=O)c2cc(C(F)(F)F)cnc2N2CCC3(CC3)C(F)(F)C2)c1` [Example 101, 2-(8,8-difluoro-6-azaspiro[2.5]octan-6-yl)-N-(3-methyl-sulfonylphenyl)-5-(trifluoromethyl) pyridine-3-carboxamide], the IC50 is 260 nM.

As for `CN1Cc2ccc(NC(=O)c3cc(C(F)(F)F)cnc3N3CCCCCC3)cc2S1(=O)=O` [Example 122, 2-(azepan-1-yl)-3-((2-methyl-1,1-dioxido-2,3-dihydrobenzo[d]isothiazol-6-yl)-carbamoyl)-5-(trifluoromethyl)pyridine], half-maximal inhibition (IC50) was put at 9140 nM. Against the preceding molecule, the IC50 is about 35-fold higher. The figure for `NS(=O)(=O)c1cccc(NC(=O)c2cc(C(F)(F)F)cnc2N2CCC(F)C2)c1` (stereo not shown) [Example 62, 2-(3-fluoropyrrolidin-1-yl)-N-(3-sulfamoyl-phenyl)-5-(trifluoro-methyl)pyridine-3-carboxamide] is 1830 nM; for `Cc1nc(N2CCCCCC2)c(C(=O)Nc2cccc(S(N)(=O)=O)c2)c(C)c1Cl` [Example 2, 2-(azepan-1-yl)-5-chloro-4,6-dimethyl-N-(3-sulfamoylphenyl)nicotinamide] it is 0.7 nM; for `NS(=O)(=O)c1cc(NC(=O)c2cc(C(F)(F)F)cnc2N2CCCCC2)ccc1F` [Example 115, N-(4-fluoro-3-sulfamoyl-phenyl)-2-(1-piperidyl)-5-(trifluoro-methyl)pyridine-3-carboxamide] it is 567 nM. The figure for `Cc1nc(N2CCCCCC2)c(C(=O)Nc2cccc(S(N)(=O)=O)c2)cc1Cl` [Example 26, 2-(azepan-1-yl)-5-chloro-6-methyl-N-(3-sulfamoylphenyl)nicotinanmide] is 2.1 nM. For `CC1(C)CCCN(c2ncc(C(F)(F)F)cc2C(=O)Nc2cccc(S(N)(=O)=O)c2)CC1` [Example 80, 2-(4,4-dimethylazepan-1-yl)-N-(3-sulfamoyl-phenyl)-5-(trifluoro-methyl)nicotinamide], the IC50 was 11 nM. This IC50 is about 5.2-fold higher than that of the molecule before. For `NS(=O)(=O)c1cccc(NC(=O)c2cc(C(F)(F)C(F)(F)F)cnc2N2CCCCCC2)c1` [Example 164, 2-(azepan-1-yl)-5-(perfluoroethyl)-N-(3-sulfamoylphenyl)nicotinamide] the value was 15 nM; for `CS(=O)(=O)c1cccc(NC(=O)c2cc(C(F)(F)F)cnc2N2Cc3ccccc3C2)c1` [Example 103, 2-isoindolin-2-yl-N-(3-methylsulfonylphenyl)-5-(trifluoromethyl)-pyridine-3-carboxamide], 2330 nM. For `Cc1c(F)c(Cl)nc(N2CCCCCC2)c1C(=O)Nc1cccc(S(N)(=O)=O)c1` [Example 3, 2-(azepan-1-yl)-6-chloro-5-fluoro-4-methyl-N-(3-sulfamoyl-phenyl)pyridine-3-carboxamide] the value was 7.6 nM.

`NS(=O)(=O)c1cccc(NC(=O)c2cc(C(F)(F)F)cnc2N2CCCC3(C2)CC3(F)F)c1` (single isomer, unassigned) [Example 127, 2-[(3R or 3S)-2,2-difluoro-5-azaspiro[2.5]-octan-5-yl]-N-(3-sulfamoylphenyl)-5-(trifluoromethyl)-pyridine-3-carboxamide] returned an IC50 of 110 nM. The figure for `COc1ccc(C(=O)Nc2cccc(C(N)=O)c2)c(N2CCCC(F)(F)CC2)n1` [Example 18, N-(3-carbamoyl-phenyl)-2-(4,4-difluoroazepan-1-yl)-6-methoxy-pyridine-3-carboxamide] is 52 nM.
